Assay results: patent US20250115598A1 (Anaxis Pharma Pty Ltd, priority 2021, published 2025)

Target: human MLKL (full length) (Homo sapiens (Human), UniProt Q8NB16)
Assay: KINOMEscan binding assay, human MLKL (full length)
Details: KINOMEscan, Table 21; read-out: Human MLKL (full-length) (KD)
Description: Binding affinity of the test compounds for human MLKL (full length), mouse MLKL (full length), human RIPK1 and human RIPK3 was determined using the KINOMEscan™ technology developed by DiscoverX (USA; http://www.discoverx.com). The assay was conducted according to manufacturer instructions.
Kinase assays. For most assays, kinase-tagged T7 phage strains were grown in parallel in 24-well blocks in an E. coli host derived from the BL21 strain. E. coli were grown to log-phase and infected with T7 phage from a frozen stock (multiplicity of infection=0.4) and incubated with shaking at 32° C. until lysis (90-150 minutes). The lysates were centrifuged (6,000×g) and filtered (0.2 μm) to remove cell debris. The remaining kinases were produced in HEK-293 cells and subsequently tagged with DNA for qPCR detection. […] The liganded beads were blocked with excess biotin and washed with blocking buffer (SeaBlock (Pierce), 1% BSA, 0.05% Tween 20, 1 mM DTT) to remove unbound ligand and to reduce non-specific phage binding. […] All reactions were performed in polypropylene 384-well plates in a final volume of 20 μL. […] The kinase concentration in the eluates was measured by qPCR.
An 11-point 3-fold serial dilution of each test compound was prepared in 100% DMSO at 100× final test concentration and subsequently diluted to 1× in the assay (final DMSO concentration=1%). Most Kos were determined using a compound top concentration=30,000 nM.
KD for each test compound was calculated with a standard dose-response curve using the Hill equation (equation (1)): […]
The Hill Slope was set to −1.
Curves were fitted using a non-linear least square fit with the Levenberg-Marquardt algorithm.

human MLKL (full length), sequence (Q8NB16 whole entry): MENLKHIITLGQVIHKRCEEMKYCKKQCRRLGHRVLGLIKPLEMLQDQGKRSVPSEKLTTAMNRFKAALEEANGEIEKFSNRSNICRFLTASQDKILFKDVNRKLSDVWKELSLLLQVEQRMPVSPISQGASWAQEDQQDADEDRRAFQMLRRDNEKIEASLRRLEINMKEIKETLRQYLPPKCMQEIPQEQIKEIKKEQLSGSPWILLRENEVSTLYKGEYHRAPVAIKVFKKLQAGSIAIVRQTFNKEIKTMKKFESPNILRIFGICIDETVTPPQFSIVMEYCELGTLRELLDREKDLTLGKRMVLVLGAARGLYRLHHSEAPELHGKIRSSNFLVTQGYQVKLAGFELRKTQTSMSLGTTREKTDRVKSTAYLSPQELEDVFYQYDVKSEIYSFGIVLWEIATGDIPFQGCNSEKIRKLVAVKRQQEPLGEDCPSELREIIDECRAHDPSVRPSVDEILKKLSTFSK

Row | Structure (SMILES) | Kd
1 | COc1ccc([C@H](C)Oc2cc(-c3nn(C)c4c(-c5cnn(C6CCOCC6)c5)cnc(N)c34)ccc2NS(=O)(=O)C(F)F)cc1 [Compound 129, (S)-N-(4-(4-amino-1-methyl-7-(1-(tetrahydro-2H-pyran-4-yl)-1H-pyrazol-4-yl)-1H-pyrazolo[4,3-c]pyridin-3-yl)-2-(1-(4-methoxy-phenyl)ethoxy)phenyl)-1,1-difluoromethane-sulfonamide] | < 1 nM

Same assay, conditions: hMLKL, Table 25; read-out: MLKL (KD)

Row | Structure (SMILES) | Kd
2 | Cc1ncsc1-c1ccc(CNC(=O)[C@@H]2C[C@@H](O)CN2C(=O)[C@@H](NC(=O)CCCCOC(=O)c2ccc(-c3cnc(N)c4c(-c5ccc(NS(=O)(=O)C(F)F)c(O[C@@H](C)c6ccc(F)cc6)c5)nn(C)c34)cn2)C(C)(C)C)cc1 [Compound 1065, 4-{[(2S)-1-[(2S,4R)-4-hydroxy-2-({[4-(4-methyl-1,3-thiazol-5-yl)phenyl]methyl}carbamoyl)pyrrolidin-1-yl]-3,3-dimethyl-1-oxobutan-2-yl]carbamoyl}butyl 5-{4-amino-3-[4-(difluoromethanesulfonamido)-3-[(1S)-1-(4-fluorophenyl)ethoxy]phenyl]-1-methyl-1H-pyrazolo[4,3-c]pyridin-7-yl}pyridine-2-carboxylate] | < 10 nM
3 | Cc1ncsc1-c1ccc(CNC(=O)[C@@H]2C[C@@H](O)CN2C(=O)[C@@H](NC(=O)c2ccc(OCCn3cc(-c4cnc(N)c5c(-c6ccc(NS(=O)(=O)C(F)F)c(O[C@@H](C)c7ccc(F)cc7)c6)nn(C)c45)cn3)cc2)C(C)(C)C)cc1 [Compound 1037, (2S,4R)-1-[(2S)-2-({4-[2-(4-{4-amino-3-[4-(difluoromethanesulfonamido)-3-[(1S)-1-(4-fluorophenyl)ethoxy]phenyl]-1-methyl-1H-pyrazolo[4,3-c]pyridin-7-yl}-1H-pyrazol-1-yl)ethoxy]phenyl}formamido)-3,3-dimethylbutanoyl]-4-hydroxy-N-{[4-(4-methyl-1,3-thiazol-5-yl)phenyl]methyl}pyrrolidine-2-carboxamide] | 10 to 1000 nM
4 | Cc1ncsc1-c1ccc(CNC(=O)[C@@H]2C[C@@H](O)CN2C(=O)[C@@H](NC(=O)CCCCN2CCC(C#Cc3cnc(N)c4c(-c5ccc(NS(=O)(=O)C(F)F)c(O[C@@H](C)c6ccc(F)cc6)c5)nn(C)c34)CC2)C(C)(C)C)cc1 [Compound 1063, (2S,4R)-1-[(2S)-2-{5-[4-(2-{4-amino-3-[4-(difluoromethanesulfonamido)-3-[(1S)-1-(4-fluorophenyl)ethoxy]phenyl]-1-methyl-1H-pyrazolo[4,3-c]pyridin-7-yl}ethynyl)piperidin-1-yl]pentanamido}-3,3-dimethylbutanoyl]-4-hydroxy-N-{[4-(4-methyl-1,3-thiazol-5-yl)phenyl]methyl}pyrrolidine-2-carboxamide] | < 10 nM
5 | C[C@H](Oc1cc(-c2nn(C)c3c(-c4cnn(C5CCN(CCN6CCCC6COc6cccc7c6C(=O)N(C6CCC(=O)NC6=O)C7=O)CC5)c4)cnc(N)c23)ccc1NS(=O)(=O)C(F)F)c1ccc(F)cc1 (stereo partly drawn) [Compound 1120, N-(4-{4-amino-7-[1-(1-{2-[2-({[2-(2,6-dioxopiperidin-3-yl)-1,3-dioxo-2,3-dihydro-1H-isoindol-4-yl]oxy}methyl)pyrrolidin-1-yl]ethyl}piperidin-4-yl)-1H-pyrazol-4-yl]-1-methyl-1H-pyrazolo[4,3-c]pyridin-3-yl}-2-[(1S)-1-(4-fluorophenyl)ethoxy]phenyl)-1,1-difluoromethanesulfonamide] | < 10 nM
6 | CN[C@@H](C)C(=O)N[C@H](C(=O)N1C[C@H](NC(=O)CCCCn2cc(-c3cnc(N)c4c(-c5ccc(NS(=O)(=O)C(F)F)c(O[C@@H](C)c6ccc(F)cc6)c5)nn(C)c34)cn2)C[C@H]1C(=O)Nc1c(F)cccc1F)C(C)(C)C [Compound 1080, (2S)-4-[5-(4-{4-amino-3-[4-(difluoromethanesulfonamido)-3-[(1S)-1-(4-fluorophenyl)ethoxy]phenyl]-1-methyl-1H-pyrazolo[4,3-c]pyridin-7-yl}-1H-pyrazol-1-yl)pentanamido]-N-(2,6-difluorophenyl)-1-[(2S)-3,3-dimethyl-2-[(2S)-2-(methylamino)propanamido]butanoyl]pyrrolidine-2-carboxamide] | < 10 nM
7 | Cc1ncsc1-c1ccc(CNC(=O)[C@@H]2C[C@@H](O)CN2C(=O)[C@@H](NC(=O)C2(F)CC2)C(C)(C)C)c(OCCCCCCCCCn2cc(-c3cnc(N)c4c(-c5ccc(NS(=O)(=O)C(F)F)c(O[C@@H](C)c6ccc(F)cc6)c5)nn(C)c34)cn2)c1 [Compound 1138, (2S,4R)—N-[(2-{[9-(4-{4-amino-3-[4-(difluoromethanesulfonamido)-3-[(1S)-1-(4-fluorophenyl)ethoxy]phenyl]-1-methyl-1H-pyrazolo[4,3-c]pyridin-7-yl}-1H-pyrazol-1-yl)nonyl]oxy}-4-(4-methyl-1,3-thiazol-5-yl)phenyl)methyl]-1-[(2S)-2-[(1-fluorocyclopropyl) formamido]-3,3-dimethylbutanoyl]-4-hydroxypyrrolidine-2-carboxamide] | 10 to 1000 nM
8 | Cc1ncsc1-c1ccc(CNC(=O)[C@@H]2C[C@@H](O)CN2C(=O)[C@@H](NC(=O)CCN2CCC(C#Cc3cnc(N)c4c(-c5ccc(NS(=O)(=O)C(F)F)c(O[C@@H](C)c6ccc(F)cc6)c5)nn(C)c34)CC2)C(C)(C)C)cc1 [Compound 1024, (2S,4R)-1-[(2S)-2-{3-[4-(2-{4-amino-3-[4-(difluoromethanesulfonamido)-3-[(1S)-1-(4-fluorophenyl)ethoxy]phenyl]-1-methyl-1H-pyrazolo[4,3-c]pyridin-7-yl}ethynyl)piperidin-1-yl]propanamido}-3,3-dimethylbutanoyl]-4-hydroxy-N-{[4-(4-methyl-1,3-thiazol-5-yl)phenyl]methyl}pyrrolidine-2-carboxamide] | < 10 nM
9 | COc1ccc(C(=O)N2CCC(n3cc(-c4cnc(N)c5c(-c6ccc(NS(=O)(=O)C(F)F)c(O[C@@H](C)c7ccc(F)cc7)c6)nn(C)c45)cn3)CC2)cc1N1CCC(=O)NC1=O [Compound 1092, N-{4-[4-amino-7-(1-{1-[3-(2,4-dioxo-1,3-diazinan-1-yl)-4-methoxybenzoyl]piperidin-4-yl}-1H-pyrazol-4-yl)-1-methyl-1H-pyrazolo[4,3-c]pyridin-3-yl]-2-[(1S)-1-(4-fluorophenyl)ethoxy]phenyl}-1,1-difluoromethanesulfonamide] | < 10 nM
10 | CN[C@@H](C)C(=O)N[C@H](C(=O)N1C[C@H](NC(=O)COCCn2cc(-c3cnc(N)c4c(-c5ccc(NS(=O)(=O)C(F)F)c(O[C@@H](C)c6ccc(F)cc6)c5)nn(C)c34)cn2)C[C@H]1C(=O)Nc1c(F)cccc1F)C(C)(C)C [Compound 1089, (2S)-4-{2-[2-(4-{4-amino-3-[4-(difluoromethanesulfonamido)-3-[(1S)-1-(4-fluorophenyl)ethoxy]phenyl]-1-methyl-1H-pyrazolo[4,3-c]pyridin-7-yl}-1H-pyrazol-1-yl)ethoxy]acetamido}-N-(2,6-difluorophenyl)-1-[(2S)-3,3-dimethyl-2-[(2S)-2-(methylamino)propanamido]butanoyl]pyrrolidine-2-carboxamide] | < 10 nM
